Results as given in patent US8865756B2, “Inhibitors of HCV NS5A” (Presidio Pharmaceuticals, Inc., priority 2008, dated 2014).

System: HCV 1b_Huh-Luc/Neo-ET cell line persistently expressing a bicistronic genotype 1b replicon in Huh 7 cells
Test: HCV replicon assay (luciferase readout)
Format: cell-based
Conditions: Hepatitis C virus, Huh-7, 72 h, read-out: Inhibition of HCV genotype 1b
Summary of the method: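 EC50, determined repeatedly, comes from a four-parameter logistic fit of luciferase signal as percent of untreated control. Readout follows 72 h compound exposure, in triplicate, of the HCV 1b_Huh-Luc/Neo-ET replicon line.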

SMILES | EC50 [nM]
COC(=O)N[C@@H]1CCC[C@H]1C(=O)N1CCC[C@H]1c1ncc(-c2ccc(C#Cc3ccc4nc([C@@H]5CCCN5C(=O)[C@@H]5CCC[C@H]5NC(=O)OC)[nH]c4c3)cc2)[nH]1 [Compound 1058] | 10 to 999
COC(=O)N[C@H]1CCC[C@@H]1C(=O)N1CCC[C@H]1c1ncc(-c2ccc(C#Cc3ccc4nc([C@@H]5CCCN5C(=O)[C@H]5CCC[C@@H]5NC(=O)OC)[nH]c4c3)cc2)[nH]1 [Compound 1059] | 10 to 999
COC(=O)N[C@H](C(=O)N1CCC[C@H]1c1ncc(-c2cc(C)c(C#Cc3ccc4nc([C@@H]5CCCN5C(=O)[C@@H](NC(=O)OC)C(C)C)[nH]c4c3)c(C)c2)[nH]1)C(C)C [Compound 1060] | < 1
COC(=O)N[C@@H](CC(=O)O)C(=O)N1CCC[C@H]1c1ncc(-c2ccc(C#Cc3ccc4nc([C@@H]5CCCN5C(=O)[C@H](CC(=O)O)NC(=O)OC)[nH]c4c3)cc2)[nH]1 [Compound 1061] | 10 to 999
COC(=O)N[C@H](C(=O)N1CCSC[C@H]1c1ncc(-c2ccc(C#Cc3ccc4nc([C@@H]5CCCN5C(=O)[C@@H](NC(=O)OC)C(C)C)[nH]c4c3)cc2)[nH]1)C(C)C [Compound 1062] | < 1
COC(=O)N1CCC[C@H]1C(=O)N1CCC[C@H]1c1ncc(-c2ccc(C#Cc3ccc4nc([C@@H]5CCCN5C(=O)[C@@H]5CCCN5C(=O)OC)[nH]c4c3)cc2)[nH]1 [Compound 1063] | 10 to 999
COC(=O)N[C@@H](CC(=O)N1CCC[C@H]1c1ncc(-c2ccc(C#Cc3ccc4nc([C@@H]5CCCN5C(=O)C[C@H](NC(=O)OC)C(C)C)[nH]c4c3)cc2)[nH]1)C(C)C [Compound 1064] | 10 to 999
COC(=O)N[C@H](CC(=O)N1CCC[C@H]1c1ncc(-c2ccc(C#Cc3ccc4nc([C@@H]5CCCN5C(=O)C[C@@H](NC(=O)OC)C(C)C)[nH]c4c3)cc2)[nH]1)C(C)C [Compound 1065] | 10 to 999
COCCOc1c(C#Cc2ccc3nc([C@@H]4CCCN4C(=O)[C@@H](NC(=O)OC)C(C)C)[nH]c3c2)ccc(-c2cnc([C@@H]3CCCN3C(=O)[C@H](NC(=O)OC)C(C)C)[nH]2)c1OCCOC [Compound 1066] | < 1
COC(=O)N[C@@H](CC(C)C)C(=O)N1CCC[C@H]1c1ncc(-c2ccc(C#Cc3ccc4nc([C@@H]5CCCN5C(=O)[C@H](CC(C)C)NC(=O)OC)[nH]c4c3)cc2)[nH]1 [Compound 1067] | < 1
COC(=O)N[C@H](C(=O)N1CC[C@H](O)[C@H]1c1ncc(-c2ccc(C#Cc3ccc4nc([C@@H]5CCCN5C(=O)[C@@H](NC(=O)OC)C(C)C)[nH]c4c3)cc2)[nH]1)C(C)C [Compound 1068] | < 1
COC(=O)N[C@H](C(=O)N1CCC[C@H]1c1ncc(-c2ccc(C#Cc3ccc4nc([C@@H]5CCCN5C(=O)[C@@H](NC(=O)OC)C5CCOCC5)[nH]c4c3)cc2F)[nH]1)C1CCOCC1 [Compound 1070] | < 1
COC(=O)N[C@H](C(=O)N1CCC[C@H]1c1nc(-c2cnc3cc(C#Cc4cnc([C@@H]5CCCN5C(=O)[C@@H](NC(=O)OC)C(C)C)[nH]4)ccc3c2)c[nH]1)C(C)C [Compound 1076] | < 1
COC(=O)N[C@H](C(=O)N1CCC[C@H]1c1nc(-c2ccc3cc(C#Cc4cnc([C@@H]5CCCN5C(=O)[C@H](NC(=O)OC)c5ccccc5)[nH]4)ccc3c2)c[nH]1)C(C)C [Compound 1077] | < 1
COC(=O)N[C@H](C(=O)N1CCC[C@H]1c1nc(-c2ccc3cc(C#Cc4cnc([C@@H]5CCCN5C(=O)[C@@H](NC(=O)OC)C(C)C)[nH]4)ccc3c2)c[nH]1)c1ccccc1 [Compound 1078] | < 1
COC(=O)N[C@H](C(=O)N1CCC[C@H]1c1nc(-c2ccc3cc(C#Cc4cnc([C@@H]5CCCN5C(=O)[C@@H](NC(=O)OC)C5CCOCC5)[nH]4)ccc3c2)c[nH]1)C(C)C [Compound 1079] | < 1
COC(=O)N[C@H](C(=O)N1CCC[C@H]1c1nc2ccc(C#Cc3ccc(-c4ccc5nc([C@@H]6CCCN6C(=O)[C@@H](NC(=O)OC)C(C)C)[nH]c5c4)nc3)cc2[nH]1)C(C)C [Compound 1083] | < 1

SMILES | EC50 [nM]
COC(=O)N[C@H](C(=O)N1CCC[C@H]1c1ncc(C#Cc2ccc(-c3ccc4nc([C@@H]5CCCN5C(=O)[C@@H](NC(=O)OC)C(C)C)[nH]c4c3)cc2)[nH]1)C(C)C [Compound 1084] | < 1
COC(=O)N[C@H](C(=O)N1CCC[C@H]1c1nc2ccc(-c3ccc(C#Cc4cnc([C@@H]5CCCN5C(=O)[C@H](NC(=O)OC)c5ccccc5)[nH]4)cc3)cc2[nH]1)C(C)C [Compound 1085] | < 1
COC(=O)N[C@H](C(=O)N1CCC[C@H]1c1ncc(C#Cc2ccc(-c3ccc4nc([C@@H]5CCCN5C(=O)[C@@H](NC(=O)OC)C(C)C)[nH]c4c3)nc2)[nH]1)C(C)C [Compound 1086] | < 1
COC(=O)N[C@H](C(=O)N1CCC[C@H]1c1ncc(C#Cc2ccc(-c3ccc4nc([C@@H]5CCCN5C(=O)[C@H](NC(=O)OC)c5ccccc5)[nH]c4c3)nc2)[nH]1)C(C)C [Compound 1087] | < 1
COC(=O)N[C@H](C(=O)N1CCC[C@H]1c1nc(-c2cnc3cc(C#Cc4ccc(-c5cnc([C@@H]6CCCN6C(=O)[C@@H](NC(=O)OC)C(C)C)[nH]5)cc4)ccc3c2)c[nH]1)C(C)C [Compound 1088] | 1 to 9.9
COC(=O)N[C@H](C(=O)N1CCC[C@H]1c1nc(-c2cnc3cc(C#Cc4ccc(-c5cnc([C@@H]6CCCN6C(=O)[C@@H](NC(=O)OC)c6ccccc6)[nH]5)cc4)ccc3c2)c[nH]1)c1ccccc1 [Compound 1089] | 1 to 9.9
COC(=O)N[C@H](C(=O)N1CCC[C@H]1c1nc2c([nH]1)-c1ccc(C#Cc3ccc(-c4cnc([C@@H]5CCCN5C(=O)[C@@H](NC(=O)OC)C5CCOCC5)[nH]4)cc3)cc1CC2)C(C)C [Compound 1091] | < 1
COC(=O)N[C@H](C(=O)N1CCC[C@H]1c1nc2ccc3cc(C#Cc4ccc(-c5cnc([C@@H]6CCCN6C(=O)[C@@H](NC(=O)OC)C6CCOCC6)[nH]5)cc4)ccc3c2[nH]1)C(C)C [Compound 1092] | < 1
COC(=O)N[C@H](C(=O)N1CCC[C@H]1c1nc2ccc3cc(C#Cc4ccc(-c5cnc([C@@H]6CCCN6C(=O)[C@H](NC(=O)OC)c6ccccc6)[nH]5)cc4)ccc3c2[nH]1)C(C)C [Compound 1093] | < 1
COC(=O)N[C@H](C(=O)N1CCC[C@H]1c1ncc(-c2ccc(C#Cc3ccc4c(c3)CCc3nc([C@@H]5CCCN5C(=O)[C@@H](NC(=O)OC)C(C)C)[nH]c3-4)cc2)[nH]1)C(C)C [Compound 1094] | < 1
COC(=O)N[C@H](C(=O)N1CCC[C@H]1c1ncc(-c2ccc(C#Cc3ccc4c(ccc5nc([C@@H]6CCCN6C(=O)[C@@H](NC(=O)OC)C(C)C)[nH]c54)c3)cc2)[nH]1)C(C)C [Compound 1095] | < 1
COC(=O)N[C@H](C(=O)N1CCC[C@H]1c1ncc(-c2ccc(C#Cc3ccc4c(c3)CCCc3nc([C@@H]5CCCN5C(=O)[C@@H](NC(=O)OC)C(C)C)[nH]c3-4)cc2)[nH]1)C(C)C [Compound 1096] | < 1
COC(=O)N[C@H](C(=O)N1CCC[C@H]1c1nc2c([nH]1)-c1ccc(C#Cc3ccc(-c4cnc([C@@H]5CCCN5C(=O)[C@@H](NC(=O)OC)C5CCOCC5)[nH]4)cc3)cc1CCC2)C(C)C [Compound 1097] | < 1
COC(=O)N[C@H](C(=O)N1CCC[C@H]1c1nc2c([nH]1)-c1ccc(C#Cc3ccc(-c4cnc([C@@H]5CCCN5C(=O)[C@H](NC(=O)OC)c5ccccc5)[nH]4)cc3F)cc1CC2)C(C)C [Compound 1098] | < 1
COC(=O)N[C@H](C(=O)N1CCC[C@H]1c1nc2ccc3cc(C#Cc4ccc(-c5cnc([C@@H]6CCCN6C(=O)[C@@H](NC(=O)OC)C6CCOCC6)[nH]5)cc4F)ccc3c2[nH]1)C(C)C [Compound 1099] | < 1
COC(=O)N[C@H](C(=O)N1CCC[C@H]1c1nc2ccc3cc(C#Cc4ccc(-c5cnc([C@@H]6CCCN6C(=O)[C@H](NC(=O)OC)c6ccccc6)[nH]5)cc4F)ccc3c2[nH]1)C(C)C [Compound 1100] | < 1
